How the values were obtained:
[1] = molecular target: Human full-length SHP2 recombinant protein (Homo sapiens (Human), UniProt Q06124); assay: Assay of full-length SHP2 phosphatase activity; format: biochemical; conditions: DiFMUP substrate, with activating peptide
Outline: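 Readout: DiFMUP hydrolysis fluorescence (355/460 nm) after 60 min at 25 °C, following 30 min RT preincubation of compound with peptide-activated full-length human SHP2. Controls were 1% DMSO with or without enzyme; IC50 by four-parameter logistic fit.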

[2] = test system: Miapaca2 3D spheroids; assay: Assay of cell proliferation on Miapaca2 3D spheroids; format: cell-based; conditions: CellTiter-Glo 3D, 5 days treatment
Method: Example 4 Assay of Cell Proliferation on Miapaca2 3D Spheroids
1. Reagents and Materials • CellTiter-Glo® 3D Cell Viability Assay Kit: Promega, Cat #G9683; • CellCarrier Spheroid ULA 96-well plate: Corning, Cat #4515; • Instrument: Envision, Perkinelmer; • Cell line: Miapaca2, ATCC, Cat #CRL-1420.
2. Preparation of Reaction Solutions • The test compound was dissolved in DMSO and diluted with DMSO to 3000.0 μM, and the compound was further 3-fold diluted with DMSO to: 1000.0, 333.3, 111.1, 37.0, 12.3, 4.1, and 1.4 μM. Then 2 μL of the compound at different dilution concentrations was added to 198 μL of a 1640 medium to prepare a 10× test compound, wherein DMSO was at the concentration of 1% (DMSO was at the final concentration of 0.1%).
3. Experimental Methods • Day0: Digest cells and count cell numbers. Miapaca2 cells were inoculated into a spheroid ULA 96-well plate at a density of 300 cells/well at 100 μL/well and cultured in a cell incubator at 5% CO2 and 37° C. • Day2: The cell spheroids formed at day2. Add 10 μL of 10× test compounds to the 96-well plate. To the cell positive control well was added 10 μL of 1% DMSO 1640 medium. Incubate the cell spheroids in a cell incubator at 5% CO2 and 37° C. for additional 5 days. • Cell viability assay: Add 50 μL of CellTiter-Glo reagent to each well, place the plate in a microplate shaker, and lysis under shaking at 900 rpm at room temperature for 5 minutes. Then incubate the plate at room temperature in the dark for 30 minutes. • The luminescene of each well was detected on Envision2104.
Cell Survial %=(Lum(d7 treatment)−Lum(d2 cell))/(Lum(d7 cell)−Lum(d2 cell))×100
Wherein: • Lum(d7 treatment) refers to the luminescene of the test compound treated cells on day7; • Lum(d2 cell) refers to the luminescene of the 0.1% DMSO treated Miapaca2 cells on day2; • Lum(d7 cell) refers to the luminescene of the 0.1% DMSO treated Miapaca2 cells on day7. • IC50 values were calculated following formula 205: y=A+((B−A)/(1+((C/X)^D))), by using the XL-Fit 5.0 software.

[3] = test system: pERK1/2 (Thr202/Tyr204) in Miapaca2 cells; assay: Assay of intracellular pERK1/2 (Thr202/Tyr204) phosphorylation; format: cell-based; conditions: pERK1/2 (Thr202/Tyr204) HTRF
Outline: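 HTRF read-out (665/615 nm) of phospho-ERK1/2 Thr202/Tyr204 in lysates from Miapaca2 cells exposed for 2 h to 3-fold compound dilutions at 0.5% final DMSO. Controls: lysis buffer without cells and DMSO-treated cells; IC50 from four-parameter logistic fit.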

[4] = Homo sapiens, MIA PaCa-2, 120 h

Human full-length SHP2 recombinant protein, sequence (Q06124 whole entry): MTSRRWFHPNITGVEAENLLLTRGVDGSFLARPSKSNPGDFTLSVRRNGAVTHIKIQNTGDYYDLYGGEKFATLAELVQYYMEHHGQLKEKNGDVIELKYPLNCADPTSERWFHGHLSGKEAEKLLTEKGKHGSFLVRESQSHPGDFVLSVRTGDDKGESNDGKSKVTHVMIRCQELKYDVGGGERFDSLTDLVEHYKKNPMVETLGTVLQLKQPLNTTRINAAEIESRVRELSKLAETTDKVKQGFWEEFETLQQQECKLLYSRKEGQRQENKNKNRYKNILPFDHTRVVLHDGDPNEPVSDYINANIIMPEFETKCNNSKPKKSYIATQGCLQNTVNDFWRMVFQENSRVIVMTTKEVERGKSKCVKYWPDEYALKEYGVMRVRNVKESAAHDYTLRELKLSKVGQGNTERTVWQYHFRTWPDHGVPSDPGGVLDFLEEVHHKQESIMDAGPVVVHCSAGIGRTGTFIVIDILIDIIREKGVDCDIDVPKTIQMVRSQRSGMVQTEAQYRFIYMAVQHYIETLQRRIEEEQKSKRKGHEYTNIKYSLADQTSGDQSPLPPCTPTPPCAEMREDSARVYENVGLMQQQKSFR

| SMILES | IC50 [1] [nM] | IC50 [2, 4] [nM] | IC50 ([3]; Homo sapiens, MIA PaCa-2, 2 h) [nM] | IC50 [2] [nM] | IC50 ([3]; 2 hours) [nM] |
| --- | --- | --- | --- | --- | --- |
| COCC#Cc1ccc2c(c1)[C@@H](N)C1(CCN(c3ncc(Sc4ccnc(N)c4Cl)c(=O)n3C)CC1)C2 [Compound 291] | 1 | 0.3 | 9 |  |  |
| CC#Cc1ccc2c(c1)[C@@H](N)C1(CCN(c3nc(N)c(-c4cn(C)c5ncccc45)c(=O)n3C)CC1)C2 [Compound 286] | 2 | 9 | 10 |  |  |
| CCNC(=O)C#Cc1ccc2c(c1)[C@@H](N)C1(CCN(c3cnc(Sc4ccnc(N)c4Cl)cn3)CC1)O2 [Compound 293] | 1 | 0.9 | 5 |  |  |
| CCNC(=O)C#Cc1ccc2c(c1)[C@@H](N)C1(CCN(c3cnc(Sc4cc(F)nc(N)c4Cl)cn3)CC1)C2 [Compound 273] | 1 | 2 | 5 |  |  |
| CCNC(=O)C#Cc1ccc2c(c1)[C@@H](N)C1(CCN(c3ncc(Sc4ccnc(N)c4Cl)nc3C#N)CC1)C2 [Compound 278] | 5 | 16 | 34 |  |  |
| C#Cc1ccc2c(c1)[C@@H](N)C1(CCN(c3ncc(Sc4ccnc(N)c4Cl)n4nccc34)CC1)C2 [Compound 156] | 6 | 31 | 10 |  |  |
| CC#Cc1ccc2c(c1)[C@@H](N)C1(CCN(c3nc(N)c(Sc4ccnc(N)c4Cl)c(=O)n3C)CC1)C2 [Compound 289] | 2 | 2 | 4 |  |  |
| CCNC(=O)C#Cc1ccc2c(c1)[C@@H](N)C1(CCN(c3cnc(Sc4ccnc(N)c4F)cn3)CC1)C2 [Compound 257] | < 0.5 | 0.3 | 1 |  |  |
| CNC(=O)C#Cc1ccc2c(c1)[C@@H](N)C1(CCN(c3cc(=O)n(-c4cccc(Cl)c4Cl)c(C)n3)CC1)C2 [Compound 173] | 1 | 24 | 18 |  |  |
| COCC#Cc1ccc2c(c1)[C@@H](N)C1(CCN(c3cc(=O)n(-c4ccc(C#N)c(OC)c4F)c(C)n3)CC1)C2 [Compound 197] | 3 | 38 | 29 |  |  |
| CCNC(=O)C#Cc1ccc2c(c1)[C@@H](N)C1(CCN(c3cnc(Sc4cc(N)ncc4Cl)c(N)n3)CC1)C2 [Compound 247] | 1 | 1 | 3 |  |  |
| CC#Cc1ccc2c(c1)[C@@H](N)C1(CCN(c3ncc(Sc4ccnc(N)c4Cl)c(=O)n3C)CC1)C2 [Compound 288] | 2 | 2 | 4 |  |  |
| C#Cc1ccc2c(c1)[C@@H](N)C1(CCN(c3ncc(Sc4ccnc(N)c4Cl)c(N)n3)CC1)C2 [Compound 205] | 12 |  |  | 68 | 29 |
| C#Cc1ccc2c(c1)[C@@H](N)C1(CCN(c3cc(=O)n(-c4ccc(C#N)c(Cl)c4Cl)c(C)n3)CC1)C2 (atropisomer, axis not shown) [Compound 193] | 1 |  |  | 90 | 24 |
| CCNC(=O)C#Cc1ccc2c(c1)[C@@H](N)C1(CCN(c3cnc(Sc4ccnc(N)n4)cn3)CC1)C2 [Compound 260] | 1 | 2 | 5 |  |  |
| CCCNC(=O)C#Cc1ccc2c(c1)[C@@H](N)C1(CCN(c3nc(N)c(Sc4ccnc(N)c4Cl)nc3C)CC1)C2 [Compound 237] | 3.9 | 2.4 | 4 |  |  |
| CNC(=O)C#Cc1ccc2c(c1)[C@@H](N)C1(CCN(c3cnc(Sc4cccnc4Cl)cn3)CC1)C2 [Compound 231] | < 0.5 | 0.8 | 7 |  |  |
| C#Cc1ccc2c(c1)[C@@H](N)C1(CCN(c3ncc(Sc4ccnc(N)c4Cl)c(=O)n3C)CC1)O2 [Compound 295] | 2 | 4 | 22 |  |  |
| CNC(=O)C#Cc1ccc2c(c1)[C@@H](N)C1(CCN(c3cnc(Sc4ccnc(N)c4F)c(N)n3)CC1)C2 [Compound 264] | 0.6 | 0.4 | 2 |  |  |
| C#Cc1ccc2c(c1)[C@@H](N)C1(CCN(c3cc(=O)n(-c4ccc(C#N)c(Cl)c4Cl)c(C)n3)CC1)C2 [Compound 184] | 3 | 96 |  |  | 67 |

| SMILES | IC50 [1] [nM] | IC50 [2, 4] [nM] | IC50 ([3]; Homo sapiens, MIA PaCa-2, 2 h) [nM] | IC50 [2] [nM] | IC50 ([3]; 2 hours) [nM] |
| --- | --- | --- | --- | --- | --- |
| CCNC(=O)C#Cc1ccc2c(c1)[C@@H](N)C1(CCN(c3cnc(N4CCCc5ncccc54)cn3)CC1)C2 [Compound 243, (S)-3-(1-amino-1′-(5-(3,4-dihydro-1,5-naphthyridin-1(2H)-yl)pyrazin-2-yl)-1,3-dihydrospiro[indene-2,4′-piperidin]-6-yl)-N-ethylpropiolamide] | 0.7 | 15 | 19 |  |  |
| CN(C)C(=O)C#Cc1ccc2c(c1)[C@@H](N)C1(CCN(c3ncc(Sc4ccnc(N)c4Cl)n4nccc34)CC1)C2 [Compound 196] | 3 | 21 | 8 |  |  |
| C#Cc1ccc2c(c1)[C@@H](N)C1(CCN(c3cc(=O)n(-c4cccc(C#N)c4Cl)c(C)n3)CC1)C2 [Compound 268] |  | 17 |  |  | 63 |
| COCC#Cc1ccc2c(c1)[C@@H](N)C1(CCN(c3nc(C)c(Sc4ccnc(N)n4)c4nccn34)CC1)C2 [Compound 117] | 2 |  | 24 |  |  |
| CN(C)CC#Cc1ccc2c(c1)C(=O)C1(CCN(c3ncc(Sc4ccnc(N)c4Cl)c4nccn34)CC1)C2 [Compound 72] | 978 |  | > 1000 |  |  |
| CCNC(=O)C#Cc1ccc2c(c1)[C@@H](N)C1(CCN(c3nc(N)c(Sc4ccnc(N)c4Cl)nc3Cl)CC1)C2 [Compound 224] | 9 |  | 20 |  |  |
| NC(=O)C#Cc1ccc2c(c1)[C@@H](N)C1(CCN(c3ncc(Sc4ccnc(N)n4)nc3CO)CC1)C2 [Compound 122] | 0.6 |  | 7 |  |  |
| C#Cc1ccc2c(c1)[C@@H](N)C1(CCN(c3cc(=O)n(-c4cccc(Cl)c4Cl)c(C(F)(F)F)n3)CC1)C2 [Compound 121] | > 1000 |  | > 1000 |  |  |
| C#Cc1ccc2c(c1)[C@@H](N)C1(CCN(c3cc(=O)n(-c4cccc(Cl)c4Cl)c(C)n3)CC1)O2 [Compound 47] | 11 |  | 115 |  |  |
| Cc1nc(N2CCC3(CC2)Cc2ccc(C#C[C@H](C)O)cc2[C@H]3N)cc(=O)n1-c1cccc(Cl)c1Cl [Compound 38] | 46 |  | 343 |  |  |
| C#Cc1ccc2c(c1)[C@@H](N)C1(CCN(c3cc(=O)n(-c4cccc(SC)c4)c(C)n3)CC1)C2 [Compound 53] | 18 |  | 364 |  |  |
| COCC#Cc1ccc2c(c1)[C@@H](N)C1(CCN(c3cc(=O)n(-c4ccc(F)c(OC)c4Cl)c(C)n3)CC1)C2 (atropisomer, axis not shown) [Compound 164] | 42 |  |  |  | 154 |
| C#Cc1ccc2c(c1)[C@@H](N)C1(CCN(c3cc(=O)n(-c4cc(F)cc(F)c4)c(C)n3)CC1)C2 [Compound 55] | 26 |  | 388 |  |  |
| C#Cc1ccc2c(c1)[C@@H](N)C1(CCN(c3cc(=O)n(-c4cccc(C(F)(F)F)c4Cl)c(C)n3)CC1)C2 (atropisomer, axis not shown) [Compound 119] | 178 |  |  |  | 698 |
| C#Cc1cc2c(cc1F)CC1(CCN(c3cc(=O)n(-c4cccc(Cl)c4Cl)c(C)n3)CC1)[C@@H]2N [Compound 228] | 203 |  | > 1000 |  |  |
| COCC#Cc1ccc2c(c1)[C@@H](N)C1(CCN(c3ncc(Sc4ccnc(C)n4)c4nccn34)CC1)C2 [Compound 132] | 3 |  | 9 |  |  |
| COCC#Cc1cccc2c1CC1(CCN(c3cc(=O)n(-c4cccc(Cl)c4Cl)c(C)n3)CC1)[C@@H]2N [Compound 96] | 5 |  | 55 |  |  |
| Cc1nc(N2CCC3(CC2)Cc2ccc(C#CCN(C)C)cc2[C@H]3N)n2ccnc2c1Sc1ccnc(N)c1Cl [Compound 75] | 2 |  | 46 |  |  |
| NC(=O)C#Cc1ccc2c(c1)[C@@H](N)C1(CCN(c3cnc(Sc4ccnc(N)c4Cl)c(N)n3)CC1)C2 [Compound 129] | 0.6 |  | 3 |  |  |

From patent US20240140931A1, “TRICYCLIC COMPOUNDS AND USES THEREOF” (HUTCHMED LIMITED, priority 2021, published 2024)
